We go through twelve molecules from patent US20230203064A1, “TRICYCLIC COMPOUNDS AS INHIBITORS OF NLRP3” (JANSSEN PHARMACEUTICA NV, priority 2020, published 2023).

pEC50, pIC50: −log10 of the molar value. A value given as a limit tells only on which side of the number the result lay.

Data set [1] relates to TNF. As to the kind of experiment: PBMC assay: TNF cytokine level after LPS stimulation. Conditions: human PBMCs, 30 min pre-incubation, 100 ng/ml LPS for 6 hrs, supernatant, MSD technology. The data set is classed as cell-based. Here is the method: (§1) Peripheral venous blood was collected from healthy individuals and human peripheral blood mononuclear cells (PBMCs) were isolated from blood by Ficoll-Histopaque (Sigma-Aldrich, A0561) density gradient centrifugation. After isolation, PBMCs were stored in liquid nitrogen for later use. Upon thawing, PBMC cell viability was determined in growth medium (RPMI media supplemented with 10% fetal bovine serum, 1% Pen-Strep and 1% L-glutamine). Compounds were spotted in a 1:3 serial dilution in DMSO and diluted to the final concentration in 30 μl medium in 96 well plates (Falcon, 353072). PBMCs were added at a density of 7.5×10^4 cells per well and incubated for 30 min in a 5% CO2 incubator at 37° C. LPS stimulation was performed by addition of 100 ng/ml LPS (final concentration, Invivogen, tirl-smips) for 6 hrs followed by collection of cellular supernatant and the analysis of IL-1β (μM) and TNF cytokines levels (μM) via MSD technology according to manufacturers' guidelines (MSD, K151A0H).
The IC50 values (for IL-1β) and EC50 values (TNF) were obtained on compounds of the invention/examples, and are depicted in the following table: […]

For data set [2], the system named is IL-1β. Kind of data set: PBMC assay: IL-1β release after LPS stimulation (NLRP3 inflammasome activity). Particulars: human PBMCs, 30 min pre-incubation, 100 ng/ml LPS for 6 hrs, supernatant, MSD technology. The data set is classed as cell-based. As for the experimental part:
as §1

`CCCN(C)c1nn(CC(=O)Nc2ccncn2)c(=O)c2cc3sccc3n12` [Final Cpd 4] had a pEC50 in data set [1] below 5.00. The molecule further showed a pIC50 in data set [2] of 6.49.
For the molecule `CNc1nn(CC(=O)Nc2ccncn2)c(=O)c2cc3scnc3n12` [Final Cpd 10], the melting point came to 263.5 °C. The pEC50 in data set [1] is below 5.00. In addition, the pIC50 in data set [2] is 6.57.
For the molecule `CN(C)c1nn(CC(=O)Nc2ccc3nncn3n2)c(=O)c2cc3sc(Cl)cc3n12` [Final Cpd 12, N-([1,2,4]triazolo[4,3-b]pyridazin-6-yl)-2-(2-chloro-5-(dimethylamino)-8-oxothieno[2′,3′:4,5]pyrrolo[1,2-d][1,2,4]triazin-7(8H)-yl)acetamide], the pEC50 in data set [1] is 5.16. Also, in data set [2], the pIC50 was 7.70.
In turn, `CN(C)c1nn(CC(=O)Nc2ccncn2)c(=O)c2cc3scnc3n12` [Final Cpd 2] registered a melting point of 248.3 °C. Also, in data set [1], the pEC50 was below 5.00. Besides, in data set [2], the pIC50 was above 6.92.
`COCCN(C)c1nn(CC(=O)Nc2ccncn2)c(=O)c2cc3sccc3n12` [Final Cpd 3] had a pEC50 in data set [1] below 5.00. The molecule further had a pIC50 in data set [2] of 6.18.
`CCN(C)c1nn(CC(=O)Nc2ccncn2)c(=O)c2cc3scnc3n12` [Final Cpd 1, 2-[12-[ethyl(methyl)amino]-9-oxo-5-thia-1,3,10,11-tetrazatricyclo-[6.4.0.02,6]dodeca-2(6),3,7,11-tetraen-10-yl]-N-pyrimidin-4-yl-acetamide] had a melting point of 214.8 °C. Also, in data set [1], the pEC50 was 5.07. Further, the pIC50 in data set [2] was 6.44.
For `CCN(C)c1nn(CC(=O)Nc2ccncn2)c(=O)c2cc3sccc3n12` [Final Cpd 6], the pEC50 in data set [1] is below 5.00. The molecule further showed a pIC50 in data set [2] of 6.60.
For `CN(C)c1nn(CC(=O)N[C@H]2C[C@@](C)(O)C2)c(=O)c2cc3scnc3n12` [Final Cpd 9], the melting point is 221.7 °C. In data set [1], the pEC50 is below 5.00. This molecule also showed a pIC50 in data set [2] above 6.92.
`CNc1nn(CC(=O)Nc2ccncn2)c(=O)c2cc3sccc3n12` [Final Cpd 5] gave a pEC50 in data set [1] below 5.00. Besides, the pIC50 in data set [2] was 6.68.
The matching figures for `CN(C)c1nn(CC(=O)Nc2ccncn2)c(=O)c2cc3sccc3n12` [Final Cpd 7]: below 5.00 and above 6.92.
For `CN(C)c1nn(CC(=O)N[C@H]2C[C@@](C)(O)C2)c(=O)c2cc3sccc3n12` [Final Cpd 11, 2-(5-(dimethylamino)-8-oxothieno[2′,3′:4,5]pyrrolo[1,2-d][1,2,4]triazin-7(8H)-yl)-N-((1s,3s)-3-hydroxy-3-methylcyclobutyl)acetamide], the pEC50 in data set [1] was below 5.00.
In turn, `CCCN(C)c1nn(CC(=O)Nc2ccncn2)c(=O)c2cc3scnc3n12` [Final Cpd 8] came in with a melting point of 196.7 °C. In data set [1], this molecule gave a pEC50 below 5.00. For the same molecule, the pIC50 in data set [2] was 6.55.

As usually defined, the pEC50 is −log10 of the EC50, conventionally taken in molar units. A higher pEC50 goes with a low EC50. As a reminder, the pIC50 is −log10 of the IC50, conventionally taken in molar units. Read a high pIC50 as a low IC50. The melting point is the temperature, or range, at which the solid turns liquid.
